Where two headings read alike, the source gives them in different places.
Tests used:
[1] = solubility of compound (I) in water or ethanol; assay type: physicochemical
Method: However, compound (I) is hardly soluble in water or ethanol; the solubility is 0.4 mg/ml in water, and 6.0 mg/ml in ethanol. Therefore, by normal solvents it is difficult to prepare a clear solution for the process of a high-dosage freeze-dried product.
Compound (I) has, as shown above, a very low solubility; 0.4 mg/ml in water, 6.0 mg/ml in ethanol. In order to obtain a freeze-dried product to prepare a high-dosage product of this compound, it is necessary to improve the solubility.

[2] = solubility in mixed solvent of ethanol and water by titration until completely dissolved (Example 1); assay type: physicochemical; conditions: thermodynamic from solid
Method: By the following method, the concentration of compound (I) was measured when compound (I) was completely dissolved in various ratios of mixed solvent comprising water and ethanol.
Above mixed solvent was titrated with various added volume for compound (I) and the mixture was vigorously stirred and was left alone for several minutes.
The above operation was done repeatedly until confirming that the solute was completely dissolved by visual recognition.
Solubility A was given by dividing the amount of solute (mg) with the volume of added solvent (ml) when the solute was completely dissolved; and solubility B was given by dividing the amount of solute with the volume of added solvent before the solute was completely dissolved (mg).
It is judged that the solubility of compound (I) to mixed solvent of ethanol and water is between solubility A and solubility B.

[3] = prior freeze-dried product method using sodium carbonate and water; cited from earlier work
elastase = target: T1, elastase (Homo sapiens, UniProt P08246); conditions: cited from earlier work
T1 sequence (P08246 30-267): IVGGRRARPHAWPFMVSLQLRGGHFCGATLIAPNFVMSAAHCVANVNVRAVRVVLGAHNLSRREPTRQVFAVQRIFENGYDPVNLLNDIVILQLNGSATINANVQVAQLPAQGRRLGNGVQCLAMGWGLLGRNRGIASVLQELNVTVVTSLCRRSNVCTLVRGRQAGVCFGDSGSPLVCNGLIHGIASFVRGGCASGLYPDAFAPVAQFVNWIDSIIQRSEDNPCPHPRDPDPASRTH

Q: With CC(C)(C)C(=O)Oc1ccc(S(=O)(=O)Nc2ccccc2C(=O)NCC(=O)[O-])cc1.[Na+] [compound (I), N-[o-(p-pivaloyloxybenzenesulfonylamino)benzoyl]glycine monosodium salt tetra-hydrate] as the compound, how does the solubility ([1]; in water) read?
A: 0.4 mg/mL

Q: And the solubility ([1]; organic solvent or mixture, in ethanol)?
A: 6 mg/mL

Q: What about the solubility ([2]; aqueous with cosolvent or surfactant or cyclodextrin, ratio of ethanol 10 vol %, read-out: solubility A) of the same compound?
A: 0.83 mg/mL

Q: What about the solubility ([2]; aqueous with cosolvent or surfactant or cyclodextrin, ratio of ethanol 10 vol %, read-out: solubility B) of the same compound?
A: 0.91 mg/mL

Q: And the solubility ([2]; aqueous with cosolvent or surfactant or cyclodextrin, ratio of ethanol 15 vol %, read-out: solubility A)?
A: 0.91 mg/mL

Q: What about the solubility ([2]; aqueous with cosolvent or surfactant or cyclodextrin, ratio of ethanol 15 vol %, read-out: solubility B) of the same compound?
A: 1 mg/mL

Q: And the solubility ([2]; aqueous with cosolvent or surfactant or cyclodextrin, ratio of ethanol 20 vol %, read-out: solubility A)?
A: 1.43 mg/mL

Q: And the solubility ([2]; aqueous with cosolvent or surfactant or cyclodextrin, ratio of ethanol 20 vol %, read-out: solubility B)?
A: 1.67 mg/mL

Q: And the solubility ([2]; aqueous with cosolvent or surfactant or cyclodextrin, ratio of ethanol 25 vol %, read-out: solubility A)?
A: 1.67 mg/mL

Q: What about the solubility ([2]; aqueous with cosolvent or surfactant or cyclodextrin, ratio of ethanol 25 vol %, read-out: solubility B) of the same compound?
A: 2 mg/mL

Q: And the solubility ([2]; aqueous with cosolvent or surfactant or cyclodextrin, ratio of ethanol 30 vol %, read-out: solubility A)?
A: 100 mg/mL

Q: What about the solubility ([2]; aqueous with cosolvent or surfactant or cyclodextrin, ratio of ethanol 30 vol %, read-out: solubility B) of the same compound?
A: 125 mg/mL

Q: And the solubility ([2]; aqueous with cosolvent or surfactant or cyclodextrin, ratio of ethanol 40 vol %, read-out: solubility A)?
A: 125 mg/mL

Q: What about the solubility ([2]; aqueous with cosolvent or surfactant or cyclodextrin, ratio of ethanol 40 vol %, read-out: solubility B) of the same compound?
A: 167 mg/mL

Q: And the solubility ([2]; aqueous with cosolvent or surfactant or cyclodextrin, ratio of ethanol 50 vol %, read-out: solubility A)?
A: 167 mg/mL

Q: What about the solubility ([2]; aqueous with cosolvent or surfactant or cyclodextrin, ratio of ethanol 50 vol %, read-out: solubility B) of the same compound?
A: 250 mg/mL

Q: What about the solubility ([2]; aqueous with cosolvent or surfactant or cyclodextrin, ratio of ethanol 60 vol %, read-out: solubility A) of the same compound?
A: 167 mg/mL

Q: What about the solubility ([2]; aqueous with cosolvent or surfactant or cyclodextrin, ratio of ethanol 60 vol %, read-out: solubility B) of the same compound?
A: 250 mg/mL

Q: And the solubility ([2]; aqueous with cosolvent or surfactant or cyclodextrin, ratio of ethanol 70 vol %, read-out: solubility A)?
A: 125 mg/mL

Q: And the solubility ([2]; aqueous with cosolvent or surfactant or cyclodextrin, ratio of ethanol 70 vol %, read-out: solubility B)?
A: 167 mg/mL

Q: What about the solubility ([2]; aqueous with cosolvent or surfactant or cyclodextrin, ratio of ethanol 80 vol %, read-out: solubility A) of the same compound?
A: 125 mg/mL

Q: What about the solubility ([2]; aqueous with cosolvent or surfactant or cyclodextrin, ratio of ethanol 80 vol %, read-out: solubility B) of the same compound?
A: 167 mg/mL

Q: What about the solubility ([2]; aqueous with cosolvent or surfactant or cyclodextrin, ratio of ethanol 90 vol %, read-out: solubility A) of the same compound?
A: 50 mg/mL

Q: And the solubility ([2]; organic solvent or mixture, mixed solvent ethanol/water=3.0/7.0~8.0/2.0 (v/v), read-out: solubility)?
A: ≥ 80 mg/mL

Q: And the solubility ([2]; organic solvent or mixture, ratio of ethanol 90 vol %, read-out: solubility B)?
A: 55.6 mg/mL

Q: What about the solubility ([2]; organic solvent or mixture, ratio of ethanol 100 vol %, read-out: solubility A) of the same compound?
A: 5 mg/mL

Q: What about the solubility ([2]; organic solvent or mixture, ratio of ethanol 100 vol %, read-out: solubility B) of the same compound?
A: 5.56 mg/mL

Q: What about the solubility ([2]; water, ratio of ethanol 0 vol %, read-out: solubility A) of the same compound?
A: 0.22 mg/mL

Q: And the solubility ([2]; water, ratio of ethanol 0 vol %, read-out: solubility B)?
A: 0.23 mg/mL

Q: And the solubility [3]?
A: < 80 mg/mL

Q: And the “inhibitory activity against elastase” value (elastase)?
A: inhibitory activity against elastase

— patent US7638556B2, “Freeze-dried product of N-[o-(p-pivaloyloxy benzenesulfonylamino)benzoyl]glycine monosodium salt tetra-hydrate and a process for the manufacture thereof” (Ono Pharmaceutical Co., Ltd., priority 2000, dated 2009)
